Data on 24 molecules can be found in patent US6506772B1, “Substituted [1,2,4]triazolo[1,5a]pyridine derivatives with activity as adenosine receptor ligands” (Hoffmann-La Roche Inc., priority 2000, dated 2003).

pKi: −log10 of the molar value. Like-named read-outs stand apart in the source and are kept apart here.

Test [1] deals with T1, human adenosine A2A receptor (Homo sapiens, UniProt P29274).
T1 construct: expressed in transfected cells; host or cells: CHO cells, Semliki Forest virus expression system; membrane preparation
T1 sequence (P29274 whole entry): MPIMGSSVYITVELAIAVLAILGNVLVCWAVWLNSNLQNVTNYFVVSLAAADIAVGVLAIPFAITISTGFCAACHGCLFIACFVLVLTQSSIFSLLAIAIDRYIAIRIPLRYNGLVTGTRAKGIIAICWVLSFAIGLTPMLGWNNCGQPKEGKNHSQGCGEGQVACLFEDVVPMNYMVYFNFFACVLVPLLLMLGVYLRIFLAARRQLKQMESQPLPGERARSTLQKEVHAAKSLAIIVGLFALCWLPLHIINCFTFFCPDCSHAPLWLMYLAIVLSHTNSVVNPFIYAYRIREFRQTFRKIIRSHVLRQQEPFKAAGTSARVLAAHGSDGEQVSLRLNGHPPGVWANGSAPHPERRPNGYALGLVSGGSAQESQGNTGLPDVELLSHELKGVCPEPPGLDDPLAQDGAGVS
As to the kind of experiment: Human adenosine A2A receptor [3H]-SCH-58261 binding assay.

For another test, the target named is T2, HA1 adenosine receptor (Homo sapiens, UniProt P30542).
T2 sequence (P30542 1-326): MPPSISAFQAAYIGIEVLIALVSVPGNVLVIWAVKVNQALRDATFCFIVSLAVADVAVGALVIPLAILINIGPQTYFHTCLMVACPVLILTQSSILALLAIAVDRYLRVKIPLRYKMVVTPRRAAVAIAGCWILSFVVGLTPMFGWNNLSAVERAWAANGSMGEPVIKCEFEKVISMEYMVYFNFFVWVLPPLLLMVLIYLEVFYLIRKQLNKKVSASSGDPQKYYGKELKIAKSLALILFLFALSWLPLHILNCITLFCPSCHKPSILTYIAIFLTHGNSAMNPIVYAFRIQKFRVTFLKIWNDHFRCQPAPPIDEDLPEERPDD
Nature of the test: Human adenosine A1 receptor affinity (Ki hA1). It is filed as binding.

Where [2] appears, read: affinity to human adenosine A2A receptor, read-out: Ki HA2A.
The mark [3] stands for this setting: calculated ratio of the affinity to the HA1 receptor to the HA2a receptor.
Setting [4] is: affinity to human adenosine A1 receptor.
Setting [5] is: recombinant human A2A in CHO cell membranes, [3H]-SCH-58261, Cheng-Prussoff, read-out: Ki hA2A.

As for `C[C@@H]1CC[C@@H](C)N1C(=O)c1cc(N)n2nc(-c3ccc(Br)o3)nc2c1` [Example 359, [5-Amino-2-(5-bromo-furan-2-yl)-[1,2,4]triazolo[1,5-a]pyridin-7-yl]-[(2R,5R)-trans-2,5-dimethyl-pyrrolidin-1-yl]-methanone], the pKi (as a rule, the Ki on a negative log10 scale, so that one unit is a factor of ten) is 8.14 in test [1] (setting [2]) and 6.03 on HA1 adenosine receptor (setting [4]). In test [1] (setting [3]), the “selectivity (A1/A2a)” value is on record as 128.0.
The like results for `C[C@@H]1CN(C(=O)c2cc(N)n3nc(-c4ccc(Br)o4)nc3c2)C[C@H](C)O1` [Example 360, [5-Amino-2-(5-bromo-furan-2-yl)-[1,2,4]triazolo[1,5-a]pyridin-7-yl]-(cis-2,6-dimethyl-morpholin-4-yl)-methanone] were, in that order, 8.11, 6.37 and 54.9.
In the case of `Nc1cc(C(=O)N2CCCC3CCCCC32)cc2nc(-c3nccs3)nn12` (stereo not drawn) [Example 379, (5-Amino-2-thiazol-2-yl-[1,2,4]triazolo[1,5-a]pyridin-7-yl)-(octahydro-quinolin-1-yl)-methanone], in test [1] (ratio KiHA1 divided by KiHA2A), the “selectivity (A1/A2a)” value was determined as 17.2. Also, the pKi in test [1] (setting [5]) was 7.47; on HA1 adenosine receptor, 6.24.
In the case of `Nc1cc(C(=O)N2CCC3CCCCC3C2)cc2nc(-c3nccs3)nn12` (stereo not drawn) [Example 380, (5-Amino-2-thiazol-2-yl-[1,2,4]triazolo[1,5-a]pyridin-7-yl)-(octahydro-isoquinolin-2-yl)-methanone], the “selectivity (A1/A2a)” value in test [1] (ratio KiHA1 divided by KiHA2A) is recorded as 24.8. Further, the pKi was 7.11 in test [1] (setting [5]) and 5.72 at HA1 adenosine receptor.
In the case of `CCN(CC)C(=O)C1CCCN(C(=O)c2cc(N)n3nc(-c4nccs4)nc3c2)C1` (stereo not drawn) [Example 381, 1-(5-Amino-2-thiazol-2-yl-[1,2,4]triazolo[1,5-a]pyridine-7-carbonyl)-piperidine-3-carboxylic acid diethylamide], in test [1] (ratio KiHA1 divided by KiHA2A), the “selectivity (A1/A2a)” value is 11.4. Further, the pKi is 6.75 in test [1] (setting [5]) and 5.69 on HA1 adenosine receptor.
As to `C=CCN(C(=O)c1cc(N)n2nc(-c3nccs3)nc2c1)C1CCCC1` [Example 382, 5-Amino-2-thiazol-2-yl-[1,2,4]triazolo[1,5-a]pyridine-7-carboxylic acid allyl-cyclopentyl-amide], the “selectivity (A1/A2a)” value in test [1] (ratio KiHA1 divided by KiHA2A) stood at 13.4. For the same molecule, the pKi is 7.26 in test [1] (setting [5]) and 6.14 on HA1 adenosine receptor.
On the same counts, the results for `CCN(C(=O)c1cc(N)n2nc(-c3nccs3)nc2c1)C1CCCCC1` [Example 383, 5-Amino-2-thiazol-2-yl-[1,2,4]triazolo[1,5-a]pyridine-7-carboxylic acid cyclohexyl-ethyl-amide] are 13.9, 7.09 and 5.95.
The like results for `COC[C@@H]1CC[C@@H](COC)N1C(=O)c1cc(N)n2nc(-c3ccc(Br)o3)nc2c1` [Example 387, [5 -Amino-2-(5-bromo-furan-2-yl)-[1,2,4]triazolo[1,5-a]pyridin-7-yl]-(S,S-2,5-bis-methoxymethyl-pyrrolidin-1-yl)-methanone] were, in that order, 21.5, 6.93 and 5.60.
The like results for `NC(=O)[C@@H]1CCCN1C(=O)c1cc(N)n2nc(-c3ccc(Br)o3)nc2c1` [Example 388, 1-[5-Amino-2-(5-bromo-furan-2-yl)-[1,2,4]triazolo[1,5-a]pyridine-7-carbonyl]-L-pyrrolidine-2-carboxylic acid amide] were, in that order, 12.4, 7.57 and 6.48.
Take `NC(=O)[C@@H]1CCCN1C(=O)c1cc(N)n2nc(-c3ccc(Br)o3)nc2c1` [Example 389, 1-[5-Amino-2-(5-bromo-furan-2-yl)-[1,2,4]triazolo[1,5-a]pyridine-7-carbonyl]-D-pyrrolidine-2-carboxylic acid amide]: the “selectivity (A1/A2a)” value in test [1] (ratio KiHA1 divided by KiHA2A) came out at 39.1. Also, the pKi in test [1] (setting [5]) was 8.01; on HA1 adenosine receptor it was 6.42.
On the same counts, the results for `CN(C)C(=O)C1CCCN1C(=O)c1cc(N)n2nc(-c3ccc(Br)o3)nc2c1` (stereo not drawn) [Example 390, 1-[5-Amino-2-(5-bromo-furan-2-yl)-[1,2,4]triazolo[1,5-a]pyridine-7-carbonyl]-pyrrolidine-2-carboxylic acid dimethylamide] are 98, 8.08 and 6.09.
The like results for `CC(=O)NC1CCN(C(=O)c2cc(N)n3nc(-c4ccc(Br)o4)nc3c2)C1` (stereo not drawn) [Example 391, N-{1-[5-Amino-2-(5-bromo-furan-2-yl)-[1,2,4]triazolo[1,5-a]pyridine-7-carbonyl]-pyrrolidin-3-yl}-acetamide] were, in that order, 27.6, 7.28 and 5.83.
The like results for `CC(=O)N(C)C1CCN(C(=O)c2cc(N)n3nc(-c4ccc(Br)o4)nc3c2)C1` (stereo not drawn) [Example 392, N-{1-[5-Amino-2-(5-bromo-furan-2-yl)-[1,2,4]triazolo[1,5-a]pyridine-7-carbonyl]-pyrrolidin-3-yl}-N-methyl-acetamide] were, in that order, 51.2, 7.46 and 5.75.
For `CCC1CCC(C)N(C(=O)c2cc(N)n3nc(-c4ccc(Br)o4)nc3c2)C1` (stereo not drawn) [Example 393, [5-Amino-2-(5-bromo-furan-2-yl)-[1,2,4]triazolo[1,5-a]pyridin-7-yl]-(5-ethyl-2-methyl-piperidin-1-yl)-methanone], in test [1] (ratio KiHA1 divided by KiHA2A), the “selectivity (A1/A2a)” value is on record as 32.9. Also, the pKi in test [1] (setting [5]) is 8.54; on HA1 adenosine receptor it was 7.02.
On the same counts, the results for `NC(=O)C1CCCN(C(=O)c2cc(N)n3nc(-c4ccc(Br)o4)nc3c2)C1` (stereo not drawn) [Example 394, 1-[5-Amino-2-(5-bromo-furan-2-yl)-[1,2,4]triazolo[1,5-a]pyridine-7-carbonyl]-piperidine-3-carboxylic acid amide] are 37.9, 7.96 and 6.38.
`COCCN(C)C(=O)c1cc(N)n2nc(-c3ccc(Br)o3)nc2c1` [Example 395, 5-Amino-2-(5-bromo-furan-2-yl)-[1,2,4]triazolo[1,5-a]pyridine-7-carboxylic acid (2-methoxy-ethyl)-methyl-amide]: the “selectivity (A1/A2a)” value in test [1] (ratio KiHA1 divided by KiHA2A) was determined as 44. For the same molecule, the pKi is 8.17 in test [1] (setting [5]) and 6.53 on HA1 adenosine receptor.
`CCN(CCOC)C(=O)c1cc(N)n2nc(-c3ccc(Br)o3)nc2c1` [Example 396, 5-Amino-2-(5-bromo-furan-2-yl)-[1,2,4]triazolo[1,5-a]pyridine-7-carboxylic acid ethyl-(2-methoxy-ethyl)-amide]: the “selectivity (A1/A2a)” value in test [1] (ratio KiHA1 divided by KiHA2A) was 48.7. Besides, the pKi in test [1] (setting [5]) was 8.46; at HA1 adenosine receptor, 6.77.
Turning to `COCCN(C)C(=O)c1cc(N)n2nc(-c3nccs3)nc2c1` [Example 397, 5-Amino-2-thiazol-2-yl-[1,2,4]triazolo[1,5-a]pyridine-7-carboxylic acid (2-methoxy-ethyl)-methyl-amide], in test [1] (ratio KiHA1 divided by KiHA2A), the “selectivity (A1/A2a)” value is on record as 18.4. Further, the figures for the pKi (in test [1] (setting [5]); on HA1 adenosine receptor) were 6.53 and 5.26, respectively.
The like results for `COC[C@@H]1CCCN1C(=O)c1cc(N)n2nc(-c3nccs3)nc2c1` [Example 400, (5-Amino-2-thiazol-2-yl-[1,2,4]triazolo[1,5-a]pyridin-7-yl)-(S-2-methoxymethyl-pyrrolidin-1-yl)-methanone] were, in that order, 53.3, 7.08 and 5.35.
On the same counts, the results for `COC[C@H]1CCCN1C(=O)c1cc(N)n2nc(-c3nccs3)nc2c1` [Example 401, (5-Amino-2-thiazol-2-yl-[1,2,4]triazolo[1,5-a]pyridin-7-yl)-(R-2-methoxymethyl-pyrrolidin-1-yl)-methanone] are 66.4, 7.28 and 5.46.
On the same counts, the results for `CCC1CCC(C)N(C(=O)c2cc(N)n3nc(-c4nccs4)nc3c2)C1` (stereo not drawn) [Example 404, (5-Amino-2-thiazol-2-yl-[1,2,4]triazolo[1,5-a]pyridin-7-yl)-(5-ethyl-2-methyl-piperidin-1-yl)-methanone] are 13.3, 7.03 and 5.90.
Take `CC(C)CN(CC(C)C)C(=O)c1cc(N)n2nc(-c3nccs3)nc2c1` [Example 405, 5-Amino-2-thiazol-2-yl-[1,2,4]triazolo[1,5-a]pyridine-7-carboxylic acid diisobutylamide]: the “selectivity (A1/A2a)” value in test [1] (ratio KiHA1 divided by KiHA2A) is 23.2. Besides, the pKi in test [1] (setting [5]) is 7.36; on HA1 adenosine receptor it was 6.00.
The like results for `CCN(C)C(=O)c1cc(N)n2nc(-c3ccccn3)nc2c1` [Example 406, 5-Amino-2-pyridin-2-yl-[1,2,4]triazolo[1,5-a]pyridine-7-carboxylic acid ethyl-methyl-amide] were, in that order, 26.8, 6.83 and 5.41.
The like results for `C#CCN(C)C(=O)c1cc(N)n2nc(-c3ccccn3)nc2c1` [Example 407, 5-Amino-2-pyridin-2-yl-[1,2,4]triazolo[1,5-a]pyridine-7-carboxylic acid methyl-prop-2-ynyl-amide] were, in that order, 26.5, 7.16 and 5.74.
